Experiment [1] deals with STING protein; IRF/IFN signaling in THP-1 R232 cells. Kind of experiment: Cell based reporter assay, THP-1 R232 IRF-luc. The settings on record: Homo sapiens, THP1-dual-KI R232 cells, IRF luciferase reporter; for Emax: maximum measured activity, read-out: THP 1-dual-KI R232_IRF(Luciferase)_Activity Maximum measured (%); for IC50: read-out: THP 1-dual-KI R232_IRF(Luciferase) IC50. An excerpt:
Cell reporter assays were developed to measure the ability of compounds of the application to activate the STING protein and activate both IRF/IFN and the NFkB signaling pathways in the myeloid derived cell line THP-1, which is commercially available from several suppliers. Briefly, THP-1 monocytes were transfected and selected for stable integration of 2 reporter constructs. Clones incorporating stably integrated vectors were further selected by antibiotic resistance to blastocidin and zeocin. The reporter constructs included: (1) firefly luciferase reporter gene under the control of an ISG54 promoter fused to five interferon (IFN)-stimulated response elements to measure IRF transcription factor binding activity and (2) secreted embryonic alkaline phosphatase reporter gene under transcription control of an IFN-beta minimal promoter fused to 5 copies of the NFkB consensus transcriptional response element and 3 copies of the c-Rel binding site.
The resulting THP-1 cell line was further modified to incorporate 3 amino acid point mutations (H71R A230G Q293R). This modification of the native TMEM173 gene in THP-1 cells (HAQ) was designed to produce a cell reporter that expressed the most common allelic variant in the human population (THP-1 R232, available from InvivoGen). Alternatively, the TMEM173 gene was knocked out to provide a congenic control to counter-screen for compound activation that was independent of the STING protein (THP-1 STING KO).
Once cell lines were established, reporter assay protocols were developed and optimized to screen small molecule compounds for agonist activity. Assay optimization for efficacy and Z′ value included titration of the following parameters:
• 1. Cell pre-activation with PMA • 2. Cell seeding density • 3. DMSO tolerance • 4. Media selection • 5. FBS concentration • 6. Incubation time • 7. Co-Assessment of cell viability by CTG assay • 8. Appropriate HPE and ZPE controls • 9. Dose Response Titration
• 1. No pre-activation with PMA • 2. 5×10^4 cells/well in 96 well plate format • 3. <0.5% DMSO • 4. RPMI 1640+2.5 mg/ml glucose • 5. 10% FBS • 6. 14-18 hr incubation • 7. Cell Titer Glo reagent (Promega) following supernatant removal • 8. […] 8 point, 2 fold, duplicate starting at 150 μM
(In general: A reporter such as luciferase makes a cellular process visible.)

Experiment [2] deals with T1, mouse STING protein (139-328) (Mus musculus, UniProt Q3TBT3).
T1 sequence (Q3TBT3 139-328): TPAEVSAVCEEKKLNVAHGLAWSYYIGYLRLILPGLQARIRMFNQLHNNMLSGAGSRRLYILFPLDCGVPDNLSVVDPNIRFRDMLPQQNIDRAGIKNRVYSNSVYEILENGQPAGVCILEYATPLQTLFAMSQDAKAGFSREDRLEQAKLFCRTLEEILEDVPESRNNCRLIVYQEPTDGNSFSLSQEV
The experiment is described as follows: Radiometric filtration binding competition assay (FBA), mSTING.

In the next experiment the target is hSTING-R232 (aa140-379) (Homo sapiens, UniProt Q86WV6, H232R). The experiment is described as follows: STING differential scanning fluorimetry (DSF) assay, hSTING WT. The settings on record: shift in melting temperature apo vs ligand-bound. In general terms: DSF heats the sample and reads unfolding from a dye or from intrinsic fluorescence.
Experiment [3] deals with human STING protein (140-379), WT (Homo sapiens, UniProt Q86WV6, H232R). The experiment is described as follows: Radiometric filtration binding competition assay (FBA), hSTING-WT. The settings on record: WT-hSWAT IC50 (μM), WT_FBA_HIS-SUMO-hSWAT; wild-type human STING; competition with [H3] 2′3′cGAMP.

Molecules are shown by their SMILES.

Sequence of hSTING-R232 (aa140-379) (Q86WV6 140-379 H232R): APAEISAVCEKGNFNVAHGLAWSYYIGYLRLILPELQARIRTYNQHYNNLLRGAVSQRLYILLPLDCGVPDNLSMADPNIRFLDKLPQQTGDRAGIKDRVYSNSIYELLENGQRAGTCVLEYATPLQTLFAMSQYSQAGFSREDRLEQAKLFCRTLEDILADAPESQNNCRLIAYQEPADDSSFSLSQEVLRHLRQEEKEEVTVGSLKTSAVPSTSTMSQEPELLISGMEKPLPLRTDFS
Sequence of human STING protein (140-379), WT (Q86WV6 140-379 H232R): as above
Description for hSTING-R232 (aa140-379): A STING DSF assay was performed to determine protein thermostability shift in response to small molecule ligand binding. A STING thermnostability shift assay based on differential scanning fluorimetry was used to measure (1) the net shift in melting temperature (ΔTm) between the apo and ligand-bound states of the STING protein and (2) the concentration of the thermal denaturation transition (EC50) as a surrogate measure of binding affinity (Kd). […] Protein in assay buffer was transferred to a 384 well plate and incubated with the hydrophobic fluorescent dye SYBR Orange. A temperature ramp was applied to the plate and the resulting dye fluorescence was plotted as a function of temperature. The first derivative of this function (dF/dT) was then used to extrapolate the melting temperature of the protein at various concentrations of compound and determine the thermal denaturation profile of a protein/compound complex.
5 μM purified Target STING Protein • 3. 8 μM Sypro Orange Dye • 4. Buffer: 100 mM NaCl, 30 mM HEPES, pH 7.5 • 5. Thermal Ramp: 0.5° C./min • 6. <1% DMSO • 7. 11 point, 2 fold dilution, duplicate, 300 μM high concentrations • 8.

A word on the IC50: it is the concentration at which inhibition is half-maximal. With `CN(C)c1c(Cl)ccc2c(=O)c3ccc(C(C)(C)C)cc3n(CC(=O)NS(C)(=O)=O)c12` [Compound 57], in experiment [1], the Emax is more than 50%. Further, the half-inhibitory concentration (IC50) in experiment [1] was less than 50 µM; in experiment [2], less than 20 µM; in experiment [3], less than 20 µM. Further, at hSTING-R232 (aa140-379), the “WT_DSF_hSWAT Tm Shift (° C.)” value is on record as “D (“D” >7° C.)”.

In the case of `Cc1ccccc1-c1c(Cl)ccc2c(=O)c3ccccc3n(CC(=O)O)c12` [Compound 59], the Emax in experiment [1] lay in the range of 5 to 25%. Further, the values for the IC50 in experiment [1], in experiment [2] and in experiment [3] were 50 to 100 µM, more than 300 µM and 20 to 100 µM, respectively. In addition, the “WT_DSF_hSWAT Tm Shift (° C.)” value at hSTING-R232 (aa140-379) was “B (“B” = 0-2° C.)”.

As for `O=C(O)Cn1c2ccccc2c(=O)c2ccc(Cl)c(-c3cccs3)c21` [Compound 62], in experiment [1], the Emax fell in the range of 25 to 50%. Besides, the IC50 in experiment [1] was more than 150 µM; in experiment [2] it was 20 to 100 µM; in experiment [3] it was 20 to 100 µM. For the same compound, the “WT_DSF_hSWAT Tm Shift (° C.)” value on hSTING-R232 (aa140-379) is “D (“D” >7° C.)”.

As to `CN(C)c1c(Cl)ccc2c(=O)c3ccc(C4CCC4)cc3n(CC(=O)O)c12` [Compound 35], in experiment [1], the Emax was more than 50% and the IC50 is less than 50 µM. In addition, on hSTING-R232 (aa140-379), the “WT_DSF_hSWAT Tm Shift (° C.)” value was “D (“D” >7° C.)”. Besides, in experiment [3], the IC50 is less than 20 µM.

Regarding `O=C(O)Cn1c2ccccc2c(=O)c2ccc(Cl)c(O)c21` [Compound 63], in experiment [1], the Emax is less than 5% and the IC50 is more than 150 µM. Also, at hSTING-R232 (aa140-379), the “WT_DSF_hSWAT Tm Shift (° C.)” value is “B (“B” = 0-2° C.)”. Further, in experiment [3], the IC50 lay in the range of 20 to 100 µM.

For `Cc1ccc2c(=O)c3c(O)cc(Cl)c(N(C)C)c3n(CC(=O)O)c2c1` [Compound 51], in experiment [1], the Emax was more than 50% and the IC50 lay in the range of 100 to 150 µM. Further, on hSTING-R232 (aa140-379), the “WT_DSF_hSWAT Tm Shift (° C.)” value is “D (“D” >7° C.)”. In addition, in experiment [3], the IC50 lay in the range of 20 to 100 µM.

With `Cc1cccn1-c1ccc2c(=O)c3ccc(Cl)c(N(C)C)c3n(CC(=O)O)c2c1` [Compound 4], in experiment [1], the Emax was more than 50% and the IC50 is less than 50 µM. The “WT_DSF_hSWAT Tm Shift (° C.)” value at hSTING-R232 (aa140-379) is “D (“D” >7° C.)”. Besides, the IC50 in experiment [3] is less than 20 µM.

With `Cc1ccc2c(=O)c3ccc(Cl)c(N4CCCC4)c3n(CC(=O)O)c2c1` [Compound 64], the Emax in experiment [1] is more than 50%. Besides, the values for the IC50 in experiment [1], in experiment [2] and in experiment [3] were less than 50 µM, 20 to 100 µM and 20 to 100 µM, respectively. The “WT_DSF_hSWAT Tm Shift (° C.)” value on hSTING-R232 (aa140-379) was “D (“D” >7° C.)”.

For the compound `CN(C)c1c(Cl)ccc2c(=O)c3ccc(C(C)(C)C#N)cc3n(CC(=O)O)c12` [Compound 52], in experiment [1], the Emax was more than 50% and the IC50 is less than 50 µM. In addition, the “WT_DSF_hSWAT Tm Shift (° C.)” value on hSTING-R232 (aa140-379) is “D (“D” >7° C.)”. The IC50 in experiment [3] was less than 20 µM.

`CN(C)c1c(Cl)ccc2c(=O)c3ccc(Br)cc3n(CC(=O)O)c12` [Compound 20]: in experiment [1], the Emax was more than 50% and the IC50 was less than 50 µM. For the same compound, the “WT_DSF_hSWAT Tm Shift (° C.)” value at hSTING-R232 (aa140-379) was “D (“D” >7° C.)”. In experiment [3], this compound had an IC50 of less than 20 µM.

Turning to `CN(C)c1c(Cl)ccc2c(=O)c3ccc(Nc4ccncc4)cc3n(CC(=O)O)c12` [Compound 81], in experiment [1], the Emax is more than 50% and the IC50 is less than 50 µM. Also, the “WT_DSF_hSWAT Tm Shift (° C.)” value at hSTING-R232 (aa140-379) was “D (“D” >7° C.)”. This compound returned an IC50 in experiment [3] of less than 20 µM.

For `COc1c(Cl)ccc2c(=O)c3ccc(C4=CCN(C)CC4)cc3n(CC(=O)O)c12` [Compound 54], in experiment [1], the Emax is 5 to 25% and the 50% inhibitory concentration (IC50) is more than 150 µM. For the same compound, the “WT_DSF_hSWAT Tm Shift (° C.)” value at hSTING-R232 (aa140-379) is recorded as “C (“C” = 2-7° C.)”. This compound had an IC50 in experiment [3] of more than 300 µM.

On to `CC(C)Nc1cc2c(cc1Cl)c(=O)c1ccc(Cl)c(N(C)C)c1n2CC(=O)O` [Compound 86], for which the Emax in experiment [1] was more than 50%. The IC50 in experiment [1] is less than 50 µM; in experiment [3] it was less than 20 µM. Besides, on hSTING-R232 (aa140-379), the “WT_DSF_hSWAT Tm Shift (° C.)” value is reported as “D (“D” >7° C.)”.

With `CN(C)c1c(Cl)ccc2c(=O)c3ccc(-c4ccccc4)cc3n(CC(=O)O)c12` [Compound 11], the Emax in experiment [1] is more than 50%. Further, the IC50 in experiment [1] is less than 50 µM; in experiment [3] it was less than 20 µM. Also, the “WT_DSF_hSWAT Tm Shift (° C.)” value at hSTING-R232 (aa140-379) is on record as “D (“D” >7° C.)”.

In the case of `CCNc1ccc2c(=O)c3ccc(Cl)c(OC)c3n(CC(=O)O)c2c1` [Compound 68], in experiment [1], the Emax was more than 50%. The results for the IC50 in experiment [1] and in experiment [3] were 50 to 100 µM and 20 to 100 µM, respectively. Moreover, the “WT_DSF_hSWAT Tm Shift (° C.)” value at hSTING-R232 (aa140-379) was “C (“C” = 2-7° C.)”.

For `CN(C)c1c(Cl)ccc2c(=O)c3cc(Cl)c(Nc4ccccc4)cc3n(CC(=O)O)c12` [Compound 91], in experiment [1], the Emax is more than 50% and the IC50 was less than 50 µM. The “WT_DSF_hSWAT Tm Shift (° C.)” value at hSTING-R232 (aa140-379) is listed as “D (“D” >7° C.)”. In experiment [3], this compound displayed an IC50 of less than 20 µM.

Regarding `CN(C)c1c(Cl)ccc2c(=O)c3cc(Br)ccc3n(CC(=O)O)c12` [Compound 29], in experiment [1], the Emax was more than 50% and the IC50 was less than 50 µM. Further, the “WT_DSF_hSWAT Tm Shift (° C.)” value on hSTING-R232 (aa140-379) is listed as “B (“B” = 0-2° C.)”. This compound showed an IC50 in experiment [3] of more than 300 µM.

`CC/C=C(\CC)c1ccc2c(=O)c3ccc(Cl)c(OC)c3n(CC(=O)O)c2c1` [Compound 18]: in experiment [1], the Emax is more than 50% and the IC50 is less than 50 µM. The “WT_DSF_hSWAT Tm Shift (° C.)” value on hSTING-R232 (aa140-379) was “D (“D” >7° C.)”. The same compound came in with an IC50 in experiment [3] of 20 to 100 µM.

Turning to `C=C(C)c1ccc2c(=O)c3ccc(Cl)c(OC)c3n(CC(=O)O)c2c1` [Compound 65], the Emax in experiment [1] is more than 50%. Moreover, the IC50 in experiment [1] was less than 50 µM; in experiment [3] it was 20 to 100 µM. Besides, the “WT_DSF_hSWAT Tm Shift (° C.)” value on hSTING-R232 (aa140-379) was “D (“D” >7° C.)”.

Take `CCC(C)(C)c1ccc2c(=O)c3ccc(Cl)c(N(C)C)c3n(CC(=O)O)c2c1` [Compound 22]: in experiment [1], the Emax is more than 50%. In addition, the values for the IC50 in experiment [1] and in experiment [3] were 50 to 100 µM and less than 20 µM, respectively. Further, the “WT_DSF_hSWAT Tm Shift (° C.)” value on hSTING-R232 (aa140-379) is on record as “D (“D” >7° C.)”.

The record behind these values is patent publication US20220227761A1, “OXOACRIDINYL ACETIC ACID DERIVATIVES AND METHODS OF USE” (STINGTHERA, INC., priority 2019, published 2022).
